One block for each compound: values may come before it. The source made the active and inactive calls.
Legend:
[1] = molecular target: Cyclin-dependent kinase 5/CDK5 activator 1 (Homo sapiens, UniProt Q00535); assay: CDK5/p35 kinase inhibitors, dose response, biochemical, cherry-picked samples, set 2 (AID 504545)
[2] = molecular target: T1, Histone-lysine N-methyltransferase NSD2 (Homo sapiens, UniProt O96028); format: biochemical
T1 sequence (O96028 whole entry): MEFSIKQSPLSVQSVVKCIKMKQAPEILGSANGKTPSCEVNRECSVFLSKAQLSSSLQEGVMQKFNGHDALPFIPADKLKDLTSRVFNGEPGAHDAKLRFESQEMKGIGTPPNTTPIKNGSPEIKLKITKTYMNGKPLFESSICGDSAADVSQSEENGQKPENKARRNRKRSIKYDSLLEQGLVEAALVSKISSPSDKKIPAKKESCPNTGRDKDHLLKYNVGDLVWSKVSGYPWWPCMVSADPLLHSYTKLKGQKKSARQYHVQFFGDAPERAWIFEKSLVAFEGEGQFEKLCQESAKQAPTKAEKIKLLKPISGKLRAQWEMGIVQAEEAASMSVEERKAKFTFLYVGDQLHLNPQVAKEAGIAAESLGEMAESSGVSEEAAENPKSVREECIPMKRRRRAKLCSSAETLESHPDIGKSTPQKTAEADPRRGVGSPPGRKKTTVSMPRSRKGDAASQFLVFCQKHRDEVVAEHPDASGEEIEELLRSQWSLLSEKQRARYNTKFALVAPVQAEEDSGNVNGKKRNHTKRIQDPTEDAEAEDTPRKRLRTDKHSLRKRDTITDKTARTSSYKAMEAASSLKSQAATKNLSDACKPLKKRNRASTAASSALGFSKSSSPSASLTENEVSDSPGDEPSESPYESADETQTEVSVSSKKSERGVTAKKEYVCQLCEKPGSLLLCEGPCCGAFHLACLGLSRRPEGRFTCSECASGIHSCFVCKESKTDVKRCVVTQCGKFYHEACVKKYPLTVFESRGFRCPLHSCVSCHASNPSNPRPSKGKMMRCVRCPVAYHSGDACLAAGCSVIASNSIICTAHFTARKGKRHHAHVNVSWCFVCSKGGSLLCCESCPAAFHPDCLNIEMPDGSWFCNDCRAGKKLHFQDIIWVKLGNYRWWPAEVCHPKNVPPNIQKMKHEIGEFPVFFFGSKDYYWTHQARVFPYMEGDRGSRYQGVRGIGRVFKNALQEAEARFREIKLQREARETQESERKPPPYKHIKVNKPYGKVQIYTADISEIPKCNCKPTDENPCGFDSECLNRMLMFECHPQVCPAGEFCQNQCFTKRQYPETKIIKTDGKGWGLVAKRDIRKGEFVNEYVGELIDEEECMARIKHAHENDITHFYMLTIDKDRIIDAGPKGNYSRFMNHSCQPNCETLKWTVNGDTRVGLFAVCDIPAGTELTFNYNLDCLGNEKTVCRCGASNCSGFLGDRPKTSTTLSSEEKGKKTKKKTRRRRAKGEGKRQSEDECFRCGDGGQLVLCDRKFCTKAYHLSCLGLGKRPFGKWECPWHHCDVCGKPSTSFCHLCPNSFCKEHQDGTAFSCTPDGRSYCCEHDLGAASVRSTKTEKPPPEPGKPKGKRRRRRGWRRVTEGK

Hexokinase HKDC1 = molecular target: T2, Hexokinase HKDC1 (Homo sapiens, UniProt Q2TB90); assay: HKDC1 hexokinase inhibitors, dose response, biochemical, W721R variant (AID 504729); format: functional
T2 sequence (Q2TB90 whole entry): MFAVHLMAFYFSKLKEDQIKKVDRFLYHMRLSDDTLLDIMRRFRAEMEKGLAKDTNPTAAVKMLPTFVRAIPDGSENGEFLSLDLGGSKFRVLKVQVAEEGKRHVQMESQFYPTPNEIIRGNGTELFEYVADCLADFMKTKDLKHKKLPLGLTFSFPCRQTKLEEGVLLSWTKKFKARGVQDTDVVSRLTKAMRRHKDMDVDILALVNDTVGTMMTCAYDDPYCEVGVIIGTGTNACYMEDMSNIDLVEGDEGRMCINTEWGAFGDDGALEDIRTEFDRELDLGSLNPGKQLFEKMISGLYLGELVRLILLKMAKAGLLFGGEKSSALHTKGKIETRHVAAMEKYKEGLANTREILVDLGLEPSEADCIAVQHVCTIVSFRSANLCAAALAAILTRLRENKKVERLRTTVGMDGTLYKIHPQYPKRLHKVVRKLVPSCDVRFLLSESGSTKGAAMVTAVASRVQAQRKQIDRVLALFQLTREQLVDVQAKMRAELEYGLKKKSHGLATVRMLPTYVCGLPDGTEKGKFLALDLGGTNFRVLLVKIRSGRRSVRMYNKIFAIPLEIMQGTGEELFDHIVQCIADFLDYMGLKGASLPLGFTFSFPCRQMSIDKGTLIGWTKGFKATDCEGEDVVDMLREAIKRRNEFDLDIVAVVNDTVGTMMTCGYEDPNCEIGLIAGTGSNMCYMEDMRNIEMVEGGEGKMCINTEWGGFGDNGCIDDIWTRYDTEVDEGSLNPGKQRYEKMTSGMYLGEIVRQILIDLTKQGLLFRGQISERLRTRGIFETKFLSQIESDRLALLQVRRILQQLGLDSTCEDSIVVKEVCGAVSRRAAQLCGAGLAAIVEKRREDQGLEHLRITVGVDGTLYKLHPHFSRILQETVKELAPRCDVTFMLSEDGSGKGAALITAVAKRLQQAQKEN

[3] = molecular target: Glucose-6-phosphate 1-dehydrogenase (Homo sapiens, UniProt P11413); assay: human G6PD enzyme inhibitors, dose response, selectivity assay for P. falciparum G6PD inhibitor project, biochemical, fluorescence (AID 504792); format: functional
[4] = molecular target: T3, Tyrosyl-DNA phosphodiesterase 2 (Homo sapiens, UniProt O95551); assay: human TDP2 enzyme inhibitors, dose response, biochemical, epi absorbance, IC50 (AID 743297)
T3 sequence (O95551 whole entry): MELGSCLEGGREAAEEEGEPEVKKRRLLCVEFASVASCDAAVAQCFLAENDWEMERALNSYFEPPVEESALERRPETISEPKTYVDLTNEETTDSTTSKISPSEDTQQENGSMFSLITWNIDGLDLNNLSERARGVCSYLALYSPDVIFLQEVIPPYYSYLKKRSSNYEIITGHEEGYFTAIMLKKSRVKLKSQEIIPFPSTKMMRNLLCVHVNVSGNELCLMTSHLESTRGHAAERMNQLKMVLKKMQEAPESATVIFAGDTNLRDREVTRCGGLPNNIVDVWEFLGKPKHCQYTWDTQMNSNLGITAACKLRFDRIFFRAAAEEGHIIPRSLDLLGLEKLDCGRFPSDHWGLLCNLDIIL

[5] = AlphaScreen signal interference compounds, dose response, artefact control for ARNT-TACC3 interaction inhibitor project, biochemical, luminescence, cherry-pick (AID 651705); format: functional;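 note: AlphaScreen bead proximity signal that flags compounds interfering with the detection technology; potency reflects signal decrease which marks the compound as an assay artifact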
[6] = molecular target: T4, Voltage-gated N-type calcium channel alpha-1B subunit/Amyloid beta A4 precursor protein-binding family A member 1 (Homo sapiens, UniProt Q00975+Q02410); assay: disruptors of Mint-PDZ/N-type channel peptide interaction – biochemical, HTRF, SAR follow-up (AID 2489); format: functional
[7] = molecular target: T4, Voltage-gated N-type calcium channel alpha-1B subunit/Amyloid beta A4 precursor protein-binding family A member 1; format: protein assay
[8] = molecular target: T4, Voltage-gated N-type calcium channel alpha-1B subunit/Amyloid beta A4 precursor protein-binding family A member 1; format: protein assay; remark: listed apart in the source
[9] = molecular target: T4, Voltage-gated N-type calcium channel alpha-1B subunit/Amyloid beta A4 precursor protein-binding family A member 1; assay: disruptors of Mint-PDZ/N-type channel peptide interaction – biochemical, HTRF, set 2, SAR follow-up (AID 434980); format: functional
X-box-binding protein 1 = X-box-binding protein 1 (Homo sapiens, UniProt P17861); format: functional, Cricetulus griseus;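 note: confirmatory dose-response counter-screen serving a CHOP assay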
[10] = molecular target: G-protein coupled receptor 35 (Homo sapiens, UniProt Q9HC97); assay: GPR35 antagonists blocking zaprinast-driven arrestin recruitment, primary screen, imaging, U2OS, beta-arrestin-GFP, zaprinast agonist (AID 2058); format: functional;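 note: antagonist potency meaning inhibition of agonist-induced arrestin redistribution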
Genome polyprotein = Genome polyprotein (dengue virus type 2, UniProt P29990); assay: Dengue-2 NS5 methyltransferase inhibitors, primary screen, biochemical, confirmation dose response (AID 588689); format: functional
Trypsin = Trypsin (Sus scrofa, UniProt P00761); assay: porcine trypsin inhibitors, dose response, selectivity assay for Rce1 protease inhibitor project, biochemical, quenched peptide fluorescence, cherry-pick (AID 488789)
CAAX prenyl protease 2 = molecular target: T5, CAAX prenyl protease 2 (Saccharomyces cerevisiae S288c, UniProt Q03530); format: biochemical
T5 sequence (Q03530 whole entry): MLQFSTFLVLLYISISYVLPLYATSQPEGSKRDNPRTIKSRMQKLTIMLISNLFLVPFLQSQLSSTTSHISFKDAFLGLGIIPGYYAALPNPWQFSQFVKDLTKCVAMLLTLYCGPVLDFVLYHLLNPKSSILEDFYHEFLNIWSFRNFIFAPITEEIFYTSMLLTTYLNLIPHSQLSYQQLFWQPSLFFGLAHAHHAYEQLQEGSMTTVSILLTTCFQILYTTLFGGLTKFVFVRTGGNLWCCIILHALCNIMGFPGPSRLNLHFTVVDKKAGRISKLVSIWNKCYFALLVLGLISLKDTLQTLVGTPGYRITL

[11] = molecular target: T6, Tyrosine-protein phosphatase non-receptor type 7 (Homo sapiens, UniProt P35236); assay: inhibitors of human HePTP phosphatase, […], biochemical, absorbance, leukemia target (AID 521); format: functional
T6 sequence (P35236 whole entry): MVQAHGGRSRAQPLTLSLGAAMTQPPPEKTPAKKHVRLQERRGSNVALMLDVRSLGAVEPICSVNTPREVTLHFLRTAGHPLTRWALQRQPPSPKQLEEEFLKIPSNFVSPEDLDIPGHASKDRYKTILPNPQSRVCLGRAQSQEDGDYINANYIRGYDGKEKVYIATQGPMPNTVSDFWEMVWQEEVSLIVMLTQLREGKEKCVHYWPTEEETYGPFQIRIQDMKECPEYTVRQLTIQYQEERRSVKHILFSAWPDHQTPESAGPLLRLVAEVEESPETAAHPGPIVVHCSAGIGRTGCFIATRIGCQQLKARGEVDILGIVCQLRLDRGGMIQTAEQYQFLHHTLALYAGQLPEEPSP

Bcl-2-like protein 10 = molecular target: T7, Bcl-2-like protein 10 (Homo sapiens, UniProt Q9HD36); assay: displacers of TR3 peptide from Bcl-B, primary screen, selectivity assay for Bfl-1 inhibitor project, biochemical, fluorescence polarization, FITC-TR3 peptide (AID 748);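 note: fluorescence polarization from a fluorescein-labelled TR3 peptide binding purified Bcl-B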
T7 sequence (Q9HD36 whole entry): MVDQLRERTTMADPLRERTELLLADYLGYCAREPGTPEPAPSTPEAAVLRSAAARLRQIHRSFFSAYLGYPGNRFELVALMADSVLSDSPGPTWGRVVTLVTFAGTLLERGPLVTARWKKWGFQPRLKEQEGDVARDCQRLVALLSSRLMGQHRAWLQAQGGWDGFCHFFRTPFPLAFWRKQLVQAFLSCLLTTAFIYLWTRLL

Bcl-2-like protein 1 = Bcl-2-like protein 1 (Homo sapiens, UniProt Q07817); assay: BCL-XL inhibitors, dose response, selectivity assay for MCL1 inhibitor project, biochemical, fluorescence polarization, 1536-well (AID 2218)
[12] = molecular target: Induced myeloid leukemia cell differentiation protein Mcl-1 (Homo sapiens, UniProt Q07820); assay: MCL1-BIM BH3 interaction inhibitors, dose response, biochemical, fluorescence polarization, BIM-BH3 peptide, 1536-well (AID 2217)
Sequence of Induced myeloid leukemia cell differentiation protein Mcl-1 (Q07820 whole entry): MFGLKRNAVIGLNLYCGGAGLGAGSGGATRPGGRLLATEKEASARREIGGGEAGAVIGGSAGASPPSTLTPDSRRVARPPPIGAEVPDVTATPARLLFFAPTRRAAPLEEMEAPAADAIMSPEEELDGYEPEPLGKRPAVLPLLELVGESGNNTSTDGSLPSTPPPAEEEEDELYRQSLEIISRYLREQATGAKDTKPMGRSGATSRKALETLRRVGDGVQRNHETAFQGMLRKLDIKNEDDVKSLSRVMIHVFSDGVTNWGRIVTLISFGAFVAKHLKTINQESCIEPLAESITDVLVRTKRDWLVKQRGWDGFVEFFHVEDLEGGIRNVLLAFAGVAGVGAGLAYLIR

T4 sequence (Q00975 whole entry): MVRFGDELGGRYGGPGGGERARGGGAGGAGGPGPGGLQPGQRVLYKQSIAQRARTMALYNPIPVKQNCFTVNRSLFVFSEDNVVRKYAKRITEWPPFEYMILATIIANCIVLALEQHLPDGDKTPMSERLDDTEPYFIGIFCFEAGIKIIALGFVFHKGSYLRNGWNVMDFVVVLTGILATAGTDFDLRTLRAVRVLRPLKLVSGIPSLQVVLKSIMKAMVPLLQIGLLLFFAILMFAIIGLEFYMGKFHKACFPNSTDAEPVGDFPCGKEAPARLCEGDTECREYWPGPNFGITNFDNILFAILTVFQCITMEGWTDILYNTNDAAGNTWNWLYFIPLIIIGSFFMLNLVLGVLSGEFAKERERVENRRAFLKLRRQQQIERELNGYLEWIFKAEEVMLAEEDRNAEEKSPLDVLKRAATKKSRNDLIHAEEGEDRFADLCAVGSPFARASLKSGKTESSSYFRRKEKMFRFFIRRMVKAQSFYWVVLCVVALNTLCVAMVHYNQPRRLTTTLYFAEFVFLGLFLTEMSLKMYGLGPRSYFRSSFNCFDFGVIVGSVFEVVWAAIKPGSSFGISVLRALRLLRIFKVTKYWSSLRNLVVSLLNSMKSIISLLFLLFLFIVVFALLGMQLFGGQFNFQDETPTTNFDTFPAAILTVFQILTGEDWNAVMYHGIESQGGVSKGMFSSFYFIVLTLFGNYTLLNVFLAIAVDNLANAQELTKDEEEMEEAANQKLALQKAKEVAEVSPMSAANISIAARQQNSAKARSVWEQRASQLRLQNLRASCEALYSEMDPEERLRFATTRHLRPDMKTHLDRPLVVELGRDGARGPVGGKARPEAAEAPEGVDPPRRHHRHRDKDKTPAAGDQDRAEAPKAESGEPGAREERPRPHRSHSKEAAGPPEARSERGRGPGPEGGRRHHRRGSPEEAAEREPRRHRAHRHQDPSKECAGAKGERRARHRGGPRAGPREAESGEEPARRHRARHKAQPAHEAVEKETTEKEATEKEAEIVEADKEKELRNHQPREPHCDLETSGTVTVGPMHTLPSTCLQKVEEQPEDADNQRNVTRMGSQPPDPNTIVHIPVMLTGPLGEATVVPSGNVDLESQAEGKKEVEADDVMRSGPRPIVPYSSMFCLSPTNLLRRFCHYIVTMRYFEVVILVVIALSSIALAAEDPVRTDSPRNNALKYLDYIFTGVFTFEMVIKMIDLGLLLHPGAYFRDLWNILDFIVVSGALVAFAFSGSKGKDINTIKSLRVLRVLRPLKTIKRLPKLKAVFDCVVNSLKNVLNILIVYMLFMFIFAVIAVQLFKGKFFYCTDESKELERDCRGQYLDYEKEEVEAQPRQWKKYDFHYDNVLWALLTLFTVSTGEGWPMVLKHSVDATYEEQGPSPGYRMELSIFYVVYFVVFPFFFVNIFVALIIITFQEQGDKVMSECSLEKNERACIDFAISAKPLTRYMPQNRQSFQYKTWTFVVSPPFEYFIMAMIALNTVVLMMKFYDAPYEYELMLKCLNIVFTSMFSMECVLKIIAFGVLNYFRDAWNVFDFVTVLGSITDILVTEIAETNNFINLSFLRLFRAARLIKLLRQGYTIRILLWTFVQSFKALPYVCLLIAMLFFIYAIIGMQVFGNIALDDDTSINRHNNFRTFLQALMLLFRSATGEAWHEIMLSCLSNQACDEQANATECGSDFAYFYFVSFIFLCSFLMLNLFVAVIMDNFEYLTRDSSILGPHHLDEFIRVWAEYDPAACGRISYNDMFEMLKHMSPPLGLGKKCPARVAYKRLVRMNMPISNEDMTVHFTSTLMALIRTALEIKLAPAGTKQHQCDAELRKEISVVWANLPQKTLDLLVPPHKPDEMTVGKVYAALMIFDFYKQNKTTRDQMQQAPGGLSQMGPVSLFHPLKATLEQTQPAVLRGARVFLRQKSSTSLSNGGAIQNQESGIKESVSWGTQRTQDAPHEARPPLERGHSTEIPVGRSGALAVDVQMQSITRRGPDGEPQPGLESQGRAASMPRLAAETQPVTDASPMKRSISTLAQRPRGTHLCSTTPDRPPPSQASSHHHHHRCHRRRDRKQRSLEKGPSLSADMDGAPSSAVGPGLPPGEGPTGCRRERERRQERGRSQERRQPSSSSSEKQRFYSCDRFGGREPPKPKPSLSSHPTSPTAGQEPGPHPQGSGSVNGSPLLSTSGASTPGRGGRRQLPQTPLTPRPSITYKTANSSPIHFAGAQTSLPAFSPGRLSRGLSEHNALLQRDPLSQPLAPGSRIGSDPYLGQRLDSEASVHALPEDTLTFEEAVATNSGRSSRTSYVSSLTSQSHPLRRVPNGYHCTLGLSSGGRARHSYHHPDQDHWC
T4 sequence (Q02410 whole entry): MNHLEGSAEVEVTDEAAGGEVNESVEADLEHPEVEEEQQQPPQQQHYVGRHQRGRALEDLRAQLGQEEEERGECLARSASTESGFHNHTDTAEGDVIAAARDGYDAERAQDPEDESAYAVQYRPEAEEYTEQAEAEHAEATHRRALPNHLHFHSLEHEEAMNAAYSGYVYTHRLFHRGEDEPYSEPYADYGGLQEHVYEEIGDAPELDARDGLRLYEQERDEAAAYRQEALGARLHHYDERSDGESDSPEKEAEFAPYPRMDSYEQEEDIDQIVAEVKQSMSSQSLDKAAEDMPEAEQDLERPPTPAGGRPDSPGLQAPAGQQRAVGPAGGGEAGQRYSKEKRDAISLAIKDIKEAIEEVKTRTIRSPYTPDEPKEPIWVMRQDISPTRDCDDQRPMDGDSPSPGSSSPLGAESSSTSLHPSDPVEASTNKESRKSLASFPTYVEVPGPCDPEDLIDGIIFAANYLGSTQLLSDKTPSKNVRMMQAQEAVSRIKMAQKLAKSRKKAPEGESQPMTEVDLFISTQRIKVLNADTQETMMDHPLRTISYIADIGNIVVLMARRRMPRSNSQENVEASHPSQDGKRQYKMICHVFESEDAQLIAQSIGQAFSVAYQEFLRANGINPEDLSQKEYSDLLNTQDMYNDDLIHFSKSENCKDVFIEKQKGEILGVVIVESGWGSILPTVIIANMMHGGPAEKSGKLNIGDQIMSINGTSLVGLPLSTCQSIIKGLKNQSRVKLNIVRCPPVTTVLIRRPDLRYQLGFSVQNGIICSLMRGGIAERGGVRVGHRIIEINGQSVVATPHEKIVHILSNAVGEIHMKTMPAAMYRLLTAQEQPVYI
Sequence of Bcl-2-like protein 1 (Q07817 whole entry): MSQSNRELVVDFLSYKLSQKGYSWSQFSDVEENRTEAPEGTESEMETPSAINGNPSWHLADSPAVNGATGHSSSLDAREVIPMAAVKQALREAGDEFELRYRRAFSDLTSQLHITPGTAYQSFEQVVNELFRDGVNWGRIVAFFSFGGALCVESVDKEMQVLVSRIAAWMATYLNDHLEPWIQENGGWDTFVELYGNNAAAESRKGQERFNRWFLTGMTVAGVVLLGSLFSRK
Sequence of Cyclin-dependent kinase 5/CDK5 activator 1 (Q00535 whole entry): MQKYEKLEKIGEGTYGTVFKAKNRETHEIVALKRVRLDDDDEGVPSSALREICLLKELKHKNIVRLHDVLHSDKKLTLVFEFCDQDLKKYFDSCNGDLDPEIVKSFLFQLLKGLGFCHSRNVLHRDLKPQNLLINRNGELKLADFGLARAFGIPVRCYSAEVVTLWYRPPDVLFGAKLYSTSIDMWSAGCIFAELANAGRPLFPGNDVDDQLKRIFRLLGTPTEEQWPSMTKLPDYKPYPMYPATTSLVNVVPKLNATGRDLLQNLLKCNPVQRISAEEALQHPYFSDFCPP
Sequence of Cyclin-dependent kinase 5/CDK5 activator 1 (Q15078 whole entry, further chain): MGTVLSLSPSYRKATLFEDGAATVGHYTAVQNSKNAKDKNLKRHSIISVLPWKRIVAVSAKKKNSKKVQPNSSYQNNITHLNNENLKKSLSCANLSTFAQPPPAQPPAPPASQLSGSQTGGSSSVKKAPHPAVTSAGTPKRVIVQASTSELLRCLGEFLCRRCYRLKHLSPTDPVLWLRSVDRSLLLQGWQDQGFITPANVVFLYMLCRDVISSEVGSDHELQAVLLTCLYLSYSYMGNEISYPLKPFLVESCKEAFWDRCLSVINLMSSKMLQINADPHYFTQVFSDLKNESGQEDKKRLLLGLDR
Sequence of Trypsin (P00761 whole entry): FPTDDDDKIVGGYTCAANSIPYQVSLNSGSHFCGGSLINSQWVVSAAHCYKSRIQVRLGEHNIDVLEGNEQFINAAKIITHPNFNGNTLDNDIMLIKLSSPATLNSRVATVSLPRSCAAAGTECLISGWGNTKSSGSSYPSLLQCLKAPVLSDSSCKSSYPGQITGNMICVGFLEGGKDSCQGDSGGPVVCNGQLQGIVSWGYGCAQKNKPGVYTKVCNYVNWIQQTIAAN
Sequence of X-box-binding protein 1 (P17861 whole entry): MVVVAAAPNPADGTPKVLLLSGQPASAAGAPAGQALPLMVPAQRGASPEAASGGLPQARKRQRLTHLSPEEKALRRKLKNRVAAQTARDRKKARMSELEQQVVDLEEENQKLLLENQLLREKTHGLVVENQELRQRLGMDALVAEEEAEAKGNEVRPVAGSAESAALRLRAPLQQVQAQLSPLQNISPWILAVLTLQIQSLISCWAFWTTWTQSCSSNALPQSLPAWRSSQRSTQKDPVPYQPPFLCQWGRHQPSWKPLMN

SMILES: COc1ccc(C(=O)c2sc(Nc3ccccc3)nc2N)cc1
AC50 [1]: 16.8 µM (active)

SMILES: CC(N=C1C=C(O)c2cccnc2C1=O)C(O)c1ccccc1 (centres undefined)
AC50 [2]: 0.754 µM (active) | IC50 (Hexokinase HKDC1): 18.5 µM (active) | IC50 [3]: 33.2 µM (inactive) | IC50 [4]: 5.45 µM (active) | AC50 [5]: 111 µM (active)

SMILES: O=C(O)COc1ccc(/C=C/C(=O)c2ccc(C3CCCCC3)cc2)cc1
IC50 [10]: 2.16 µM (active) | IC50 (Genome polyprotein): 47.7 µM (active)

SMILES: CCn1c(SC(C)C(=O)O)nc2sc3c(c2c1=O)CCC3 (centres undefined)
IC50 [11]: 1.69 µM (active) | IC50 (Bcl-2-like protein 10): 7.65 µM (active) | IC50 (Bcl-2-like protein 1): 90.1 µM (not active) | IC50 [12]: 16.8 µM (not active)

Next, values leading:

IC50 [6]: 7.82 µM (active) | IC50 [7]: 1.93 µM (active) | IC50 [8]: 5.05 µM (active) | IC50 [9]: 6.39 µM (active)
SMILES: CC(=O)Oc1ccc(N2C(=O)C3C(C2=O)C2(C)C=CC3(C)O2)cc1 (centres undefined)

Absolute IC50 (XBP1) (X-box-binding protein 1): 10 µM
SMILES: O=C(Nc1ccccc1C(F)(F)F)c1cc(-c2ccc(O)cc2)on1

AC50 (Trypsin): 9.56 µM (active) | AC50 (CAAX prenyl protease 2): 9.47 µM (active)
SMILES: O=C(COc1ccc2ccc(=O)oc2c1)NCCc1c[nH]c2ccc(F)cc12
